According to patent US20250099478A1, “PLASMA KALLIKREIN INHIBITORS” (Merck Sharp & Dohme LLC, priority 2022, published 2025):

biological target: T1, Human plasma kallikrein (Homo sapiens, UniProt P03952); test: Plasma Kallikrein Assay; assay type: biochemical; details: purified Human plasma kallikrein 0.5 nM, substrate Acetyl-K-P-R-AFC; read-out: PKal IC50
T1 construct: yields a heavy chain (371 amino acids) and a light chain (248 amino acids); purchased Enzyme Research Laboratories
Experimental: The effectiveness of a compound of the present invention as an inhibitor of plasma kallikrein can be determined using a relevant purified serine protease, and an appropriate synthetic substrate. The rate of hydrolysis of the chromogenic or fluorogenic substrate by the relevant serine protease was measured both in the absence and presence of compounds of the present invention. Assays were conducted at rt or at 37° C. […] A decrease in the rate of fluorescence change in the presence of inhibitor is indicative of enzyme inhibition. Such methods are known to one skilled in the art. The results of this assay are expressed as the half-maximal inhibitory concentrations (IC50), or the inhibitory constant, Ki.
Plasma kallikrein determinations were made in 50 mM HEPES buffer at pH 7.4 containing 150 mM NaCl, 5 mM CaCl2), and 0.1% PEG 8000 (polyethylene glycol; Fisher Scientific). Determinations were made using purified Human plasma kallikrein at a final concentration of 0.5 nM (Enzyme Research Laboratories) and the synthetic substrate, Acetyl-K-P-R-AFC (Sigma #C6608) at a concentration of […].
Times required to achieve equilibration between enzyme and inhibitor were determined in control experiments. […] IC50 was determined by inflection point from a four parameter logistic curve fit. Ki was calculated using the Cheng Prusoff equation, Ki=IC50/(1+([S]/Km)).

T1 sequence (P03952 391-638 limits assumed): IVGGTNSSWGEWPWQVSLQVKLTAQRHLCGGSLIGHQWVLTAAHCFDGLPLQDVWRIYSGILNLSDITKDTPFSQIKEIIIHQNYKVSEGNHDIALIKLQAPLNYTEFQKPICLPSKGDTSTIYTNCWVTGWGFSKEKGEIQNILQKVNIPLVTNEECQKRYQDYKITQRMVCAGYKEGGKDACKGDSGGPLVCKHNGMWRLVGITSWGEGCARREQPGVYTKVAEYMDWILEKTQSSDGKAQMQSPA
T1 sequence (P03952 20-390 partner limits assumed): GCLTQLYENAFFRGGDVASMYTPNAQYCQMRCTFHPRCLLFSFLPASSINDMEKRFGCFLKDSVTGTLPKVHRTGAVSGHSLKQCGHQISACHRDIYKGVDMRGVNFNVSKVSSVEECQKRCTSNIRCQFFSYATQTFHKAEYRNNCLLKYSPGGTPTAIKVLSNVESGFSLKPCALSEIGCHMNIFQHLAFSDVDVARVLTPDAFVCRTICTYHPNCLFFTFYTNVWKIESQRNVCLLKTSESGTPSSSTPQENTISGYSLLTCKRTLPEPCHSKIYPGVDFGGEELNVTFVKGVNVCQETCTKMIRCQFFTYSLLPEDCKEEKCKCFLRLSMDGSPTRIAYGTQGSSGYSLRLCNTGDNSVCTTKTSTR

Going from CC1CN(C(=O)c2cnn(Cc3ccccc3)c2)C[C@]2(C1)OC(=O)Nc1ccc(Cl)c(F)c12 (stereo partly drawn) [Example 20, (4R)-1′-(1-Benzyl-1H-pyrazole-4-carbonyl)-6-chloro-5-fluoro-5′-methylspiro[benzo[d][1,3]oxazine-4,3′-piperidin]-2(1H)-one] to CS(=O)(=O)c1cccc(Cn2cc(C(=O)N3CCC[C@@]4(C3)OC(=O)Nc3ccc(Cl)c(F)c34)cn2)c1 [Example 63, (R)-6-chloro-5-fluoro-1′-(1-(3-(methylsulfonyl)benzyl)-1H-pyrazole-4-carbonyl)spiro[benzo[d][1,3]oxazine-4,3′-piperidin]-2(1H)-one], the IC50 rises from 28.1 nM to 42.6 nM (1.5-fold). The first is the more potent here.

O=C1Nc2ccc(Cl)c(F)c2[C@@]2(CCCN(C(=O)c3nc(C(O)c4ccc(F)cc4)n[nH]3)C2)O1 (stereo partly drawn) [Example 127, (4R)-6-Chloro-5-fluoro-1′-(3-((4-fluorophenyl)(hydroxy)methyl)-1H-1,2,4-triazole-5-carbonyl)spiro[benzo[d][1,3]oxazine-4,3′-piperidin]-2(1H)-one] and O=C1Nc2ccc(Cl)c(F)c2[C@@]2(CCCN(C(=O)c3nnc(Cc4cccc(Cl)c4)[nH]3)C2)O1 [Example 118, (R)-6-Chloro-1′-(5-(3-chlorobenzyl)-4H-1,2,4-triazole-3-carbonyl)-5-fluorospiro[benzo[d][1,3]oxazine-4,3′-piperidin]-2(1H)-one] are within 1.5-fold of each other in IC50: 39.9 nM for the first, 29.2 nM for the second.

Compared with O=C1Nc2ccc(Cl)c(F)c2[C@@]2(CCCN(C(=O)c3cnn(Cc4cccc(C(F)(F)F)c4)c3)C2)O1 [Example 5, (R)-6-Chloro-5-fluoro-1′-(1-(3-(trifluoromethyl)benzyl)-1H-pyrazole-4-carbonyl)spiro[benzo[d][1,3]oxazine-4,3′-piperidin]-2(1H)-one], O=C1Nc2ccc(Cl)c(F)c2[C@@]2(CCCN(C(=O)c3cnn(Cc4ccc(F)c(Cl)c4)c3)C2)O1 [Example 6, (R)-6-Chloro-1′-(1-(3-chloro-4-fluorobenzyl)-1H-pyrazole-4-carbonyl)-5-fluorospiro[benzo[d][1,3]oxazine-4,3′-piperidin]-2(1H)-one] is 2.9-fold lower in IC50: 23.1 nM for the first, 8 nM for the second. The second is the more potent here.

COc1ccc(Cl)cc1Cn1cc(C(=O)N2CCC[C@@]3(C2)OC(=O)Nc2ccc(Cl)c(F)c23)cn1 [Example 13, (R)-6-Chloro-1′-(1-(5-chloro-2-methoxybenzyl)-1H-pyrazole-4-carbonyl)-5-fluorospiro[benzo[d][1,3]oxazine-4,3′-piperidin]-2(1H)-one] and N#Cc1ccc(Cn2cc(C(=O)N3CCC[C@@]4(C3)OC(=O)Nc3ccc(Cl)c(F)c34)cn2)cc1Cl [Example 47, (R)-2-Chloro-4-((4-(6-chloro-5-fluoro-2-oxo-1,2-dihydrospiro[benzo[d][1.3]oxazine-4,3′-piperidine]-1′-carbonyl)-1H-pyrazol-1-yl)methyl)benzonitrile] are within 1.5-fold of each other in IC50: 37.6 nM for the first, 27.1 nM for the second.

O=C1Nc2ccc(Cl)c(F)c2[C@@]2(CCCN(C(=O)c3cnn(Cc4cnc5ccccn45)c3)C2)O1 [Example 19, (R)-6-Chloro-5-fluoro-1′-(1-(imidazo[1,2-a]pyridin-3-ylmethyl)-1H-pyrazole-4-carbonyl)spiro[benzo[d][1,3]oxazine-4,3′-piperidin]-2(1H)-one] and CC(c1ccccc1)n1cc(C(=O)N2CCC[C@@]3(C2)OC(=O)Nc2ccc(Cl)c(F)c23)cn1 (single isomer, unassigned) [Example 24] are within 1.5-fold of each other in IC50: 27 nM for the first, 38.3 nM for the second.

Cn1cc(-c2ccc(Cc3nnc(C(=O)N4CCC[C@@]5(C4)OC(=O)Nc4ccc(Cl)c(F)c45)[nH]3)cc2)cn1 [Example 91, (R)-6-Chloro-5-fluoro-1′-(5-(4-(1-methyl-1H-pyrazol-4-yl)benzyl)-4H-1,2,4-triazole-3-carbonyl)spiro[benzo[d][1,3]oxazine-4,3′-piperidin]-2(1H)-one] and O=C1Nc2ccc(Cl)c(F)c2[C@@]2(CCCN(C(=O)c3nnc(Cc4ccc(CO)c(Cl)c4)[nH]3)C2)O1 [Example 125, (R)-6-Chloro-1′-(5-(3-chloro-4-(hydroxymethyl)benzyl)-4H-1,2,4-triazole-3-carbonyl)-5-fluorospiro[benzo[d][1,3]oxazine-4,3′-piperidin]-2(1H)-one] are within 1.5-fold of each other in IC50: 25.2 nM for the first, 20.3 nM for the second.

Going from O=C1Nc2ccc(Cl)c(F)c2[C@]2(CCN(C(=O)C3CCN(Cc4ccc(Cn5ccccc5=O)cc4)C3)C2)O1 (single isomer, unassigned) [Example 136] to O=C1Nc2ccc(Cl)c(F)c2[C@]2(CCN(C(=O)c3cnn(Cc4ccc(Cn5ccccc5=O)cc4)c3)C2)O1 [Example 132], the IC50 falls from 43.2 nM to 6.1 nM (7.1-fold). The second is the more potent here.

O=C1Nc2ccc(Cl)c(F)c2[C@@]2(CCCN(C(=O)c3cnn(Cc4ccc5c(c4)OCCO5)c3)C2)O1 [Example 54, (R)-6-Chloro-1′-(1-((2,3-dihydrobenzo[b][1,4]dioxin-6-yl)methyl)-1H-pyrazole-4-carbonyl)-5-fluorospiro[benzo[d][1,3]oxazine-4,3′-piperidin]-2(1H)-one] and CC1(C)COc2cc(Cn3cc(C(=O)N4CCC[C@@]5(C4)OC(=O)Nc4ccc(Cl)c(F)c45)cn3)ccc21 [Example 59, (R)-6-Chloro-1′-(1-((3,3-dimethyl-2,3-dihydrobenzofuran-6-yl)methyl)-1H-pyrazole-4-carbonyl)-5-fluorospiro[benzo[d][1,3]oxazine-4,3′-piperidin]-2(1H)-one] are within 1.5-fold of each other in IC50: 29.8 nM for the first, 22.9 nM for the second.

First: Nc1noc2ccc(Cn3cc(C(=O)N4CCC[C@@]5(C4)OC(=O)Nc4ccc(Cl)c(F)c45)cn3)cc12 [Example 57, (R)-1′-(1-((3-Aminobenzo[d]isoxazol-5-yl)methyl)-1H-pyrazole-4-carbonyl)-6-chloro-5-fluorospiro[benzo[d][1,3]oxazine-4,3′-piperidin]-2(1H)-one]
Second: COC(=O)c1ccc(Cn2cc(C(=O)N3CCC[C@@]4(C3)OC(=O)Nc3ccc(Cl)c(F)c34)cn2)cc1F [Example 49, Methyl (R)-4-((4-(6-chloro-5-fluoro-2-oxo-1,2-dihydrospiro[benzo[d][1,3]oxazine-4,3′-piperidine]-1′-carbonyl)-1H-pyrazol-1-yl)methyl)-2-fluorobenzoate]
The IC50 of the first is 1.6-fold lower: 29.7 nM for the first, 47 nM for the second.

First: O=C1Nc2ccc(Cl)c(F)c2[C@@]2(CCCN(C(=O)c3nnc(Cc4cccc(CO)c4)[nH]3)C2)O1 [Example 116, (R)-6-Chloro-5-fluoro-1′-(5-(3-(hydroxymethyl)benzyl)-4H-1,2,4-triazole-3-carbonyl)spiro[benzo[d][1,3]oxazine-4,3′-piperidin]-2(1H)-one]
Second: O=C1Nc2ccc(Cl)c(F)c2[C@@]2(CCCN(C(=O)c3nnc(Cc4cccc(C(F)(F)F)c4)[nH]3)C2)O1 [Example 115, (R)-6-Chloro-5-fluoro-1′-(5-(3-(trifluoromethyl)benzyl)-4H-1,2,4-triazole-3-carbonyl)spiro[benzo[d][1,3]oxazine-4,3′-piperidin]-2(1H)-one]
The IC50 of the first is 1.7-fold higher: 39.9 nM for the first, 23.9 nM for the second. The second is the more potent here.

First: C[C@H](c1cccc(Cl)c1)n1cc(C(=O)N2CCC[C@@]3(C2)OC(=O)Nc2ccc(Cl)c(F)c23)cn1 (single isomer, unassigned) [Example 28]
Second: CCC(c1ccc2ncncc2c1)n1cc(C(=O)N2CCC[C@@]3(C2)OC(=O)Nc2ccc(Cl)c(F)c23)cn1 (single isomer, unassigned) [Example 41]
The IC50 of the first is 3.2-fold lower: 10.4 nM for the first, 33.8 nM for the second.

Going from O=C1Nc2ccc(Cl)c(F)c2[C@@]2(CCCN(C(=O)c3nnc(Cc4cc(F)cc(Cl)c4)[nH]3)C2)O1 [Example 121, (R)-6-Chloro-1′-(5-(3-chloro-5-fluorobenzyl)-4H-1,2,4-triazole-3-carbonyl)-5-fluorospiro[benzo[d][1,3]oxazine-4,3′-piperidin]-2(1H)-one] to Cc1cc(Cc2nnc(C(=O)N3CCC[C@@]4(C3)OC(=O)Nc3ccc(Cl)c(F)c34)[nH]2)cc2[nH]nnc12 [Example 123, (R)-6-Chloro-5-fluoro-1′-(5-((4-methyl-1H-benzo[d][1,2,3]triazol-6-yl)methyl)-4H-1,2,4-triazole-3-carbonyl)spiro[benzo[d][1,3]oxazine-4,3′-piperidin]-2(1H)-one], the IC50 falls from 35.4 nM to 19.1 nM (1.9-fold).

Going from O=C1Nc2ccc(Cl)c(F)c2[C@]2(CCN(C(=O)c3cn(Cc4ccc(Cn5ccccc5=O)cc4)nc3C(F)(F)F)C2)O1 [Example 135, (S)-6-Chloro-5-fluoro-1′-(1-(4-((2-oxopyridin-1(2H)-yl)methyl)benzyl)-3-(trifluoromethyl)-1H-pyrazole-4-carbonyl)spiro[benzo[d][1,3]oxazine-4,3′-pyrrolidin]-2(1H)-one] to O=C(O)COc1ccc(Cn2cc(C(=O)N3CCC[C@@]4(C3)OC(=O)Nc3ccc(Cl)c(F)c34)cn2)cc1 [Example 52, (R)-2-(4-((4-(6-Chloro-5-fluoro-2-oxo-1,2-dihydrospiro[benzo[d][1,3]oxazine-4,3′-piperidine]-1′-carbonyl)-1H-pyrazol-1-yl)methyl)phenoxy)acetic acid], the IC50 rises from 7.5 nM to 24.1 nM (3.2-fold). The first is the more potent here.

Work on O=C1Nc2ccc(Cl)c(F)c2[C@@]2(CCCN(C(=O)c3nnc([C@](O)(c4ccccc4)C(F)(F)F)[nH]3)C2)O1 [Example 108, (R)-6-Chloro-5-fluoro-1′-(5-((R)-2,2,2-trifluoro-1-hydroxy-1-phenylethyl)-4H-1,2,4-triazole-3-carbonyl)spiro[benzo[d][1,3]oxazine-4,3′-piperidin]-2(1H)-one] yielded an IC50 of 20.1 nM.
